According to the NIST ThermoML archive (doi:10.1021/je700261b):
Numbers after ± are expanded uncertainties.

Assay: xn = mol fraction of the nth substance listed
Details: Liquid

In the case of `CCCCO` [butan-1-ol] + O=C=O, the mass density (313.16 K, 11059 kPa, x2 = 0.5965) is reported as 838.66 ± 0.51 kg/m3, the mass density (313.16 K, 11082 kPa, x2 = 0.8663) is reported as 813.86 ± 0.57 kg/m3 and the mass density (313.16 K, 12061 kPa, x2 = 0.8663) is reported as 821.6 ± 0.57 kg/m3. For the same compound, the mass density (313.16 K, 12075 kPa, x2 = 0.5965) was 840.6 ± 0.51 kg/m3, the mass density (313.16 K, 13043 kPa, x2 = 0.8663) was 828.71 ± 0.57 kg/m3 and the mass density (313.16 K, 13069 kPa, x2 = 0.5965) was 842.49 ± 0.52 kg/m3. For the same compound, the mass density (313.16 K, 14076 kPa, x2 = 0.8663) was 835.52 ± 0.56 kg/m3, the mass density (313.16 K, 14098 kPa, x2 = 0.5965) was 844.39 ± 0.52 kg/m3 and the mass density (313.16 K, 15059 kPa, x2 = 0.5965) was 846.11 ± 0.53 kg/m3. It also gave a mass density (313.16 K, 15061 kPa, x2 = 0.8663) of 841.57 ± 0.56 kg/m3, a mass density (313.16 K, 16037 kPa, x2 = 0.5965) of 847.81 ± 0.53 kg/m3 and a mass density (313.16 K, 16043 kPa, x2 = 0.8663) of 847.15 ± 0.56 kg/m3. For the same compound, the mass density (313.16 K, 17032 kPa, x2 = 0.5965) was 849.52 ± 0.53 kg/m3, the mass density (313.16 K, 17052 kPa, x2 = 0.8663) was 852.59 ± 0.56 kg/m3 and the mass density (313.16 K, 18048 kPa, x2 = 0.5965) was 851.21 ± 0.54 kg/m3. It also gave a mass density (313.16 K, 18056 kPa, x2 = 0.8663) of 857.69 ± 0.55 kg/m3, a mass density (313.16 K, 19039 kPa, x2 = 0.8663) of 862.42 ± 0.55 kg/m3 and a mass density (313.16 K, 19055 kPa, x2 = 0.5965) of 852.88 ± 0.54 kg/m3. The mass density (313.16 K, 20027 kPa, x2 = 0.8663) was 866.99 ± 0.55 kg/m3, the mass density (313.16 K, 20044 kPa, x2 = 0.5965) was 854.46 ± 0.55 kg/m3 and the mass density (313.16 K, 21042 kPa, x2 = 0.5965) was 856.04 ± 0.55 kg/m3. It also gave a mass density (313.16 K, 21068 kPa, x2 = 0.8663) of 871.52 ± 0.55 kg/m3, a mass density (313.16 K, 22034 kPa, x2 = 0.8663) of 875.6 ± 0.55 kg/m3 and a mass density (313.16 K, 22053 kPa, x2 = 0.5965) of 857.62 ± 0.56 kg/m3. The mass density (313.16 K, 23031 kPa, x2 = 0.5965) was 859.12 ± 0.56 kg/m3, the mass density (313.16 K, 23061 kPa, x2 = 0.8663) was 879.74 ± 0.55 kg/m3 and the mass density (313.16 K, 24038 kPa, x2 = 0.5965) was 860.62 ± 0.57 kg/m3. For the same compound, the mass density (313.16 K, 24054 kPa, x2 = 0.8663) was 883.63 ± 0.55 kg/m3, the mass density (313.16 K, 25015 kPa, x2 = 0.8663) was 887.21 ± 0.56 kg/m3 and the mass density (313.16 K, 25036 kPa, x2 = 0.5965) was 862.12 ± 0.57 kg/m3. The mass density (323.05 K, 1017 kPa, x2 = 0.0251) was 789.88 ± 0.46 kg/m3, the mass density (323.05 K, 2015 kPa, x2 = 0.0251) was 790.73 ± 0.47 kg/m3 and the mass density (323.05 K, 3003 kPa, x2 = 0.0251) was 791.59 ± 0.48 kg/m3. For the same compound, the mass density (323.05 K, 4007 kPa, x2 = 0.0251) was 792.48 ± 0.48 kg/m3, the mass density (323.05 K, 5026 kPa, x2 = 0.0251) was 793.33 ± 0.49 kg/m3 and the mass density (323.05 K, 5975 kPa, x2 = 0.0251) was 794.14 ± 0.5 kg/m3. For the same compound, the mass density (323.05 K, 7085 kPa, x2 = 0.0251) was 795.08 ± 0.51 kg/m3, the mass density (323.05 K, 7991 kPa, x2 = 0.0251) was 795.85 ± 0.52 kg/m3 and the mass density (323.05 K, 9003 kPa, x2 = 0.0251) was 796.68 ± 0.52 kg/m3. The mass density (323.05 K, 10032 kPa, x2 = 0.0251) was 797.56 ± 0.53 kg/m3, the mass density (323.05 K, 10996 kPa, x2 = 0.0251) was 798.32 ± 0.54 kg/m3 and the mass density (323.05 K, 11029 kPa, x2 = 0.9698) was 630.03 ± 1.2 kg/m3. The mass density (323.05 K, 12005 kPa, x2 = 0.9698) was 671.01 ± 1.1 kg/m3, the mass density (323.05 K, 12028 kPa, x2 = 0.0251) was 799.15 ± 0.55 kg/m3 and the mass density (323.05 K, 12996 kPa, x2 = 0.9698) was 700.08 ± 0.96 kg/m3. It also gave a mass density (323.05 K, 13030 kPa, x2 = 0.0251) of 799.93 ± 0.56 kg/m3, a mass density (323.05 K, 14024 kPa, x2 = 0.9698) of 723.36 ± 0.87 kg/m3 and a mass density (323.05 K, 14030 kPa, x2 = 0.0251) of 800.72 ± 0.57 kg/m3. The mass density (323.05 K, 15018 kPa, x2 = 0.0251) was 801.45 ± 0.58 kg/m3, the mass density (323.05 K, 15024 kPa, x2 = 0.9698) was 741.89 ± 0.82 kg/m3 and the mass density (323.05 K, 16009 kPa, x2 = 0.9698) was 757.4 ± 0.78 kg/m3. For the same compound, the mass density (323.05 K, 16017 kPa, x2 = 0.0251) was 802.24 ± 0.59 kg/m3, the mass density (323.05 K, 17001 kPa, x2 = 0.9698) was 771.14 ± 0.76 kg/m3 and the mass density (323.05 K, 17014 kPa, x2 = 0.0251) was 802.97 ± 0.59 kg/m3. For the same compound, the mass density (323.05 K, 18016 kPa, x2 = 0.9698) was 783.62 ± 0.74 kg/m3, the mass density (323.05 K, 18025 kPa, x2 = 0.0251) was 803.71 ± 0.6 kg/m3 and the mass density (323.05 K, 19020 kPa, x2 = 0.9698) was 794.82 ± 0.72 kg/m3. For the same compound, the mass density (323.05 K, 19034 kPa, x2 = 0.0251) was 804.49 ± 0.61 kg/m3, the mass density (323.05 K, 20048 kPa, x2 = 0.9698) was 805.21 ± 0.7 kg/m3 and the mass density (323.05 K, 20052 kPa, x2 = 0.0251) was 805.21 ± 0.62 kg/m3. The mass density (323.05 K, 21014 kPa, x2 = 0.0251) was 805.95 ± 0.63 kg/m3, the mass density (323.05 K, 21055 kPa, x2 = 0.9698) was 814.54 ± 0.69 kg/m3 and the mass density (323.05 K, 22017 kPa, x2 = 0.9698) was 822.92 ± 0.68 kg/m3. The mass density (323.05 K, 22027 kPa, x2 = 0.0251) was 806.68 ± 0.64 kg/m3, the mass density (323.05 K, 23002 kPa, x2 = 0.0251) was 807.38 ± 0.65 kg/m3 and the mass density (323.05 K, 23087 kPa, x2 = 0.9698) was 831.58 ± 0.67 kg/m3. It also gave a mass density (323.05 K, 24035 kPa, x2 = 0.0251) of 808.13 ± 0.66 kg/m3, a mass density (323.05 K, 24055 kPa, x2 = 0.9698) of 838.92 ± 0.66 kg/m3 and a mass density (323.05 K, 25023 kPa, x2 = 0.0251) of 808.84 ± 0.67 kg/m3. The mass density (323.07 K, 1981 kPa, x2 = 0.0857) was 794.04 ± 0.47 kg/m3, the mass density (323.07 K, 3013 kPa, x2 = 0.0857) was 795.05 ± 0.47 kg/m3 and the mass density (323.07 K, 4009 kPa, x2 = 0.0857) was 795.99 ± 0.48 kg/m3. For the same compound, the mass density (323.07 K, 5021 kPa, x2 = 0.0857) was 796.91 ± 0.49 kg/m3, the mass density (323.07 K, 6010 kPa, x2 = 0.0857) was 797.83 ± 0.5 kg/m3 and the mass density (323.07 K, 6995 kPa, x2 = 0.0857) was 798.74 ± 0.5 kg/m3. The mass density (323.07 K, 7985 kPa, x2 = 0.0857) was 799.59 ± 0.51 kg/m3, the mass density (323.07 K, 9047 kPa, x2 = 0.0857) was 800.55 ± 0.52 kg/m3 and the mass density (323.07 K, 10028 kPa, x2 = 0.0857) was 801.4 ± 0.53 kg/m3. For the same compound, the mass density (323.07 K, 11003 kPa, x2 = 0.0857) was 802.22 ± 0.54 kg/m3, the mass density (323.07 K, 12005 kPa, x2 = 0.0857) was 803.07 ± 0.55 kg/m3 and the mass density (323.07 K, 12995 kPa, x2 = 0.0857) was 803.91 ± 0.55 kg/m3. For the same compound, the mass density (323.07 K, 14273 kPa, x2 = 0.0857) was 805.01 ± 0.56 kg/m3, the mass density (323.07 K, 15019 kPa, x2 = 0.0857) was 805.58 ± 0.57 kg/m3 and the mass density (323.07 K, 15998 kPa, x2 = 0.0857) was 806.41 ± 0.58 kg/m3.
